Data on one molecule can be found in PMC10761377 (2023).

Experiment [1] has as its system FPAS (fipronil aptamer Short) (DNA, aptamer) AGTTTCTGGAGGACTGGGCGGGGTGACGGTTATG
As to the kind of experiment: electrochemical competitive replacement assay (chronoamperometry). The note with it: free fipronil displaces 1 µM-loaded aptamer from immobilised fipronil; 1 h.

Experiment [2] relates to FPAP (fipronil aptamer with primers) (DNA, aptamer) TGTACCGTCTGAGCGATTCGTACAGTTTCTGGAGGACTGGGCGGGGTGACGGTTATGAGCCAGTCAGTGTTAAGGAGTGC
As to the kind of experiment: chronoamperometric binding titration on SPCE (streptavidin-HRP/TMB). The note with it: NaCl 100 mM, MgCl2 2 mM; Tris-HCl 20 mM; 30 min; apparent; immobilised compound (amide-linked to poly-2-aminobenzoic acid electrode); logistic fit.

Experiment [3] relates to FPAS (fipronil aptamer Short) (DNA, aptamer) AGTTTCTGGAGGACTGGGCGGGGTGACGGTTATG
The experiment is described as above. The following applies: NaCl 100 mM, MgCl2 2 mM; Tris-HCl 20 mM; 30 min; apparent; immobilised compound (amide-linked to poly-2-aminobenzoic acid electrode); logistic fit.

Take `N#Cc1nn(-c2c(Cl)cc(C(F)(F)F)cc2Cl)c(N)c1S(=O)C(F)(F)F` (stereo not drawn): in experiment [1], the binding result is recorded as “yes”. For the same molecule, the KD in experiment [2] was 94.3 ± 0.5 nM; in experiment [3], 24.9 ± 1.7 nM.
